This is an account of results in patent publication US12252524B2, “GIP/GLP1 co-agonist compounds” (Eli Lilly and Company, priority 2018, dated 2025).

Molecules are shown by their SMILES. Numbered stars: 1 amine (or outer) side, 2 acyl side, 3 side chain; on linkers, the order of the positions; unused ones are H or OH. Square brackets hold non-standard residues; d marks the D form. Side chains are listed from the residue outwards. Peptide text beside a SMILES is read from it. * marks the point of attachment. Malonyl(2,2-Me2,histaminyl) = CC(C)(C(=O)NCCc1cnc[nH]1)C(=O)*; C20 diacid = O=C(O)CCCCCCCCCCCCCCCCCCC(=O)*; C18 diacid = O=C(O)CCCCCCCCCCCCCCCCC(=O)*; γGlu = O=C(O)[C@H](CCC(=O)[*:2])N[*:1]; αMeF = C[C@](N)(Cc1ccccc1)C(=O)O; αMeL = CC(C)C[C@](C)(N)C(=O)O; AEEA = NCCOCCOCC(=O)O; Aib = CC(C)(N)C(=O)O

Assay [1] addresses T1, human Gcg receptor (Homo sapiens, UniProt P47871).
T1 construct: expressed in transfected cells; crude membranes
In words: [125I]-Glucagon binding (SPA), human Gcg receptor. Conditions: read-out: hGLcgR Ki, nM (SEM, n). In short, it runs like this: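 Crude membranes from cells expressing the receptor, prepared by hypotonic lysis in 50 mM Tris HCl pH 7.5 with protease inhibitors, homogenization and differential centrifugation, were used in a WGA-bead SPA. Binding buffer: 25 mM HEPES pH 7.4, 2.5 mM CaCl2, 1 mM MgCl2, bacitracin, Tween-20.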

The target of assay [2] is T2, human GIP receptor (Homo sapiens, UniProt P48546).
T2 construct: expressed in transfected cells; crude membranes
T2 sequence (P48546 22-466): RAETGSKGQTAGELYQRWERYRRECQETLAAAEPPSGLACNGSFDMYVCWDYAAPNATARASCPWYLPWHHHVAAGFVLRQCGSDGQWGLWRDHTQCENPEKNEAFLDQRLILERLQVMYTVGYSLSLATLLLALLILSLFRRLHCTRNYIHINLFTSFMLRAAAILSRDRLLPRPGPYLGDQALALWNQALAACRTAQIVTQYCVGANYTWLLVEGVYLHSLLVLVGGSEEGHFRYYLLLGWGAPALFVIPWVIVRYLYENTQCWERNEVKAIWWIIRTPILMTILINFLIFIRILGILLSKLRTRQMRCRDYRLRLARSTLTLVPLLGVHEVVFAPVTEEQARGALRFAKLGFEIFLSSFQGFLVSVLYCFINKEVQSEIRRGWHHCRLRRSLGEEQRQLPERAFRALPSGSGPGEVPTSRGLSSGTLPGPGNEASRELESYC
As to the kind of experiment: [125I]-GIP binding (SPA), human GIP receptor. Conditions: read-out: hGIPR Ki, nM (SEM, n).

The target of assay [3] is human GLP-1 receptor (GLP-1R) (Homo sapiens, UniProt P43220). As to the kind of experiment: cAMP pharmacological functional assay in presence of casein, hGLP-1R. Conditions: HEK293 cells expressing hGLP-1R, 0.1% Casein, geometric mean; read-out: hGLP1R cAMP Rel EC50 nM (SEM, n). The class given is cell-based.
human GLP-1 receptor (GLP-1R), sequence (P43220 24-463): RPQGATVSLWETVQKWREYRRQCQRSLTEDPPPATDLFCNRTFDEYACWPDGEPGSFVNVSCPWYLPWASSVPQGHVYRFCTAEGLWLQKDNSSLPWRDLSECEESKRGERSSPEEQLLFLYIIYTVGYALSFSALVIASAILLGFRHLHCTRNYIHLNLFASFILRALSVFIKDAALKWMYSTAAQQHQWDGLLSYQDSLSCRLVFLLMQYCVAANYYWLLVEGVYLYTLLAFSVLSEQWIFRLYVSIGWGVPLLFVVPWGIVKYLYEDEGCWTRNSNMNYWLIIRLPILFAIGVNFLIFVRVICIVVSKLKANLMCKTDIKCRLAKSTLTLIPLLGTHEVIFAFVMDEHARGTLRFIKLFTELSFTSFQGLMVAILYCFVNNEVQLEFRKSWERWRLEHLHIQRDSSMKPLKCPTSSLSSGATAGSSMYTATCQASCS
In assay [4] the target is T3, gastric inhibitory peptide receptor (GIPR) (Homo sapiens, UniProt P48546).
T3 sequence (P48546 22-466): T2 sequence (P48546 22-466)
In words: cAMP pharmacological functional assay in presence of casein, hGIPR. The assay is classed as cell-based. Conditions: HEK293 cells expressing hGIPR, 0.1% Casein, geometric mean; read-out: hGIPR cAMP Rel EC50 nM (SEM, n).

The target in assay [5] is human GLP-1R (Homo sapiens, UniProt P43220). In words: [125I]-GLP-1 binding (SPA), human GLP-1 receptor. Set-up: expressed in transfected cells; crude membranes. Conditions: read-out: hGLP1R Ki, (nM) (SEM, n). In a few lines: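 Crude-membrane binding assay; one membrane prep included 1 mM MgCl2 and 25 units/ml DNAse I during lysis. Assay buffer at pH 7.4 contains 0.1% (w/v) bacitracin and 0.003% (w/v) TWEEN-20. Ki is reported as geometric mean.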
human GLP-1R, sequence (P43220 24-463): as above

T1 sequence (P47871 26-477): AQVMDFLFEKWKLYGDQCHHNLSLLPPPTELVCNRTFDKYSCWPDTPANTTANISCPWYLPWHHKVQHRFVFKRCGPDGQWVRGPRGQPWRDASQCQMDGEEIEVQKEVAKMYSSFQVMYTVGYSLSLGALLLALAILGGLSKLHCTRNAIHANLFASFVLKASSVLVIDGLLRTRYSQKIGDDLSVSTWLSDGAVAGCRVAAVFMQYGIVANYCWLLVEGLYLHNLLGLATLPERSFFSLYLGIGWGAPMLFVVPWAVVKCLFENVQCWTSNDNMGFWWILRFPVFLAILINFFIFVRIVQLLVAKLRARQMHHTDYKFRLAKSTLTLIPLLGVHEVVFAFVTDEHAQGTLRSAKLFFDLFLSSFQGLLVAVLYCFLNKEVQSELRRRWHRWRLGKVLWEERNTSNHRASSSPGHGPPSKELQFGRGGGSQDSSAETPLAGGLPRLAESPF

With `CC[C@H](C)[C@H](NC(=O)[C@H](CCCCN)NC(=O)[C@H](CC(=O)O)NC(=O)[C@H](CC(C)C)NC(=O)[C@H](CC(C)C)NC(=O)[C@@H](NC(=O)[C@H](CO)NC(=O)[C@H](Cc1ccc(O)cc1)NC(=O)[C@H](CC(=O)O)NC(=O)[C@H](CO)NC(=O)[C@@H](NC(=O)[C@H](Cc1ccccc1)NC(=O)[C@@H](NC(=O)CNC(=O)[C@H](CCC(=O)O)NC(=O)C(C)(C)NC(=O)[C@@H](N)Cc1ccc(O)cc1)[C@@H](C)O)[C@@H](C)O)[C@@H](C)CC)C(=O)N[C@@H](C)C(=O)N[C@@H](CCC(N)=O)C(=O)NC(C)(C)C(=O)N[C@@H](C)C(=O)N[C@@H](Cc1ccccc1)C(=O)N[C@H](C(=O)N[C@@H](CCC(=O)O)C(=O)N[C@@H](Cc1ccc(O)cc1)C(=O)N[C@@H](CC(C)C)C(=O)N[C@H](C(=O)N[C@@H](CCC(=O)O)C(=O)NCC(=O)NCC(=O)N1CCC[C@H]1C(=O)N[C@@H](CO)C(=O)N[C@@H](CO)C(=O)NCC(=O)N[C@@H](C)C(=O)N1CCC[C@H]1C(=O)N1CCC[C@H]1C(=O)N1CCC[C@H]1C(=O)N[C@@H](CO)C(=O)N[C@@H](CCCCNC(=O)COCCOCCNC(=O)COCCOCCNC(=O)CC[C@H](NC(=O)CCCCCCCCCCCCCCCCCCC(=O)O)C(=O)O)C(N)=O)[C@@H](C)CC)[C@@H](C)CC` [Example 49] (H-Y[Aib]EGTFTSDYSILLDKIAQ[Aib]AFIEYLIEGGPSSGAPPPSK([AEEA-AEEA-γGlu-C20 diacid])-NH2; N-terminus assumed), the results for the inhibition constant (Ki) in assay [1], in assay [2] and in assay [5] were 236 nM, 0.087 nM and 12.3 nM, respectively. Besides, the EC50 – broadly, the concentration that produces a half-maximal response – stood at 0.597 nM in assay [3] and 0.0868 nM in assay [4].
With `CC[C@H](C)[C@H](NC(=O)[C@H](CC(C)C)NC(=O)[C@H](Cc1ccc(O)cc1)NC(=O)[C@H](CCC(=O)O)NC(=O)[C@@H](NC(=O)[C@H](Cc1ccccc1)NC(=O)[C@H](C)NC(=O)C(C)(C)NC(=O)[C@H](CCC(N)=O)NC(=O)[C@H](C)NC(=O)[C@H](CCCCNC(=O)COCCOCCNC(=O)COCCOCCNC(=O)CC[C@H](NC(=O)CCCCCCCCCCCCCCCCCCC(=O)O)C(=O)O)NC(=O)[C@H](CCC(=O)O)NC(=O)[C@H](CC(=O)O)NC(=O)[C@H](CC(C)C)NC(=O)[C@](C)(CC(C)C)NC(=O)[C@@H](NC(=O)[C@H](CO)NC(=O)[C@H](Cc1ccc(O)cc1)NC(=O)[C@H](CC(=O)O)NC(=O)[C@H](CO)NC(=O)[C@@H](NC(=O)[C@H](Cc1ccccc1)NC(=O)[C@@H](NC(=O)CNC(=O)[C@H](CCC(=O)O)NC(=O)C(C)(C)NC(=O)[C@@H](N)Cc1ccc(O)cc1)[C@@H](C)O)[C@@H](C)O)[C@@H](C)CC)[C@@H](C)CC)C(=O)N[C@@H](CCC(=O)O)C(=O)NCC(=O)NCC(N)=O` [Example 63] (H-Y[Aib]EGTFTSDYSI[αMeL]LDEK([AEEA-AEEA-γGlu-C20 diacid])AQ[Aib]AFIEYLIEGG-NH2), the Ki (as a rule, the equilibrium dissociation constant of an inhibitor or competing ligand from its target) in assay [1] is 273 nM; in assay [2], 0.141 nM; in assay [5], 7.79 nM. The EC50 in assay [3] was determined as 0.19 nM; in assay [4] it was 0.0925 nM.
For `CC[C@H](C)[C@H](NC(=O)[C@H](CCCCN)NC(=O)[C@H](CC(=O)O)NC(=O)[C@H](CC(C)C)NC(=O)[C@H](CC(C)C)NC(=O)[C@@H](NC(=O)[C@H](CO)NC(=O)[C@H](Cc1ccc(O)cc1)NC(=O)[C@H](CC(=O)O)NC(=O)[C@H](CO)NC(=O)[C@@H](NC(=O)[C@H](Cc1ccccc1)NC(=O)[C@@H](NC(=O)CNC(=O)[C@H](CCC(=O)O)NC(=O)C(C)(C)NC(=O)[C@@H](N)Cc1c[nH]cn1)[C@@H](C)O)[C@@H](C)O)[C@@H](C)CC)C(=O)N[C@@H](C)C(=O)N[C@@H](CCC(N)=O)C(=O)N[C@@H](CCCCNC(=O)COCCOCCNC(=O)COCCOCCNC(=O)CC[C@H](NC(=O)CCCCCCCCCCCCCCCCCCC(=O)O)C(=O)O)C(=O)N[C@@H](C)C(=O)N[C@@H](Cc1ccccc1)C(=O)N[C@H](C(=O)N[C@@H](CCC(=O)O)C(=O)N[C@@H](Cc1ccc(O)cc1)C(=O)N[C@@H](CC(C)C)C(=O)N[C@@H](CC(C)C)C(=O)N[C@@H](CCC(=O)O)C(=O)NC(C)(C)C(=O)NCC(=O)N1CCC[C@H]1C(=O)N[C@@H](CO)C(=O)N[C@@H](CO)C(=O)NCC(N)=O)[C@@H](C)CC` [Example 17] (H-H[Aib]EGTFTSDYSILLDKIAQK([AEEA-AEEA-γGlu-C20 diacid])AFIEYLLE[Aib]GPSSG-NH2; N-terminus assumed), the Ki is 261 nM in assay [1], 0.606 nM in assay [2] and 7.63 nM in assay [5]. Moreover, the EC50 in assay [3] is 0.152 nM; in assay [4], 5.81 nM.
As for `CC[C@H](C)[C@H](NC(=O)[C@H](CC(C)C)NC(=O)[C@H](Cc1ccc(O)cc1)NC(=O)[C@H](CCC(=O)O)NC(=O)[C@@H](NC(=O)[C@H](Cc1ccccc1)NC(=O)[C@H](C)NC(=O)C(C)(C)NC(=O)[C@H](CCC(N)=O)NC(=O)[C@H](C)NC(=O)[C@H](CCCCNC(=O)COCCOCCNC(=O)COCCOCCNC(=O)CC[C@H](NC(=O)CCCCCCCCCCCCCCCCCCC(=O)O)C(=O)O)NC(=O)[C@H](CCCCN)NC(=O)[C@H](CC(=O)O)NC(=O)[C@H](CC(C)C)NC(=O)[C@H](CC(C)C)NC(=O)[C@@H](NC(=O)[C@H](CO)NC(=O)[C@H](Cc1ccc(O)cc1)NC(=O)[C@H](CC(=O)O)NC(=O)[C@H](CO)NC(=O)[C@@H](NC(=O)[C@H](Cc1ccccc1)NC(=O)[C@@H](NC(=O)CNC(=O)[C@H](CCC(=O)O)NC(=O)C(C)(C)C(=O)NCCc1cnc[nH]1)[C@@H](C)O)[C@@H](C)O)[C@@H](C)CC)[C@@H](C)CC)C(=O)N[C@@H](CCC(=O)O)C(=O)NCC(=O)NCC(=O)N1CCC[C@H]1C(=O)N[C@@H](CO)C(=O)N[C@@H](CO)C(=O)NCC(=O)N[C@@H](C)C(=O)N1CCC[C@H]1C(=O)N1CCC[C@H]1C(=O)N1CCC[C@H]1C(=O)N[C@@H](CO)C(N)=O` [Example 105] ({Malonyl(2,2-Me2,histaminyl)}-EGTFTSDYSILLDKK([AEEA-AEEA-γGlu-C20 diacid])AQ[Aib]AFIEYLIEGGPSSGAPPPS-NH2), the values for the Ki in assay [1], in assay [2] and in assay [5] were 20.4 nM, 0.119 nM and 0.871 nM, respectively. For the same compound, the results for the concentration for a half-maximal effect (EC50) in assay [3] and in assay [4] were 0.0401 nM and 1.85 nM, respectively.
For `CC[C@H](C)[C@H](NC(=O)[C@H](CC(C)C)NC(=O)[C@H](Cc1ccc(O)cc1)NC(=O)[C@@H](CCC(=O)O)NC(=O)[C@@H](NC(=O)[C@H](Cc1ccccc1)NC(=O)[C@H](CCC(=O)O)NC(=O)C(C)(C)NC(=O)[C@H](CCC(N)=O)NC(=O)[C@H](C)NC(=O)[C@H](CCCCNC(=O)COCCOCCNC(=O)COCCOCCNC(=O)CC[C@H](NC(=O)CCCCCCCCCCCCCCCCC(=O)O)C(=O)O)NC(=O)[C@H](CCC(=O)O)NC(=O)[C@H](CC(=O)O)NC(=O)[C@H](CC(C)C)NC(=O)[C@](C)(CC(C)C)NC(=O)[C@@H](NC(=O)[C@H](CO)NC(=O)[C@H](Cc1ccc(O)cc1)NC(=O)[C@H](CC(=O)O)NC(=O)[C@H](CO)NC(=O)[C@@H](NC(=O)[C@](C)(Cc1ccccc1)NC(=O)[C@@H](NC(=O)CNC(=O)[C@H](CCC(=O)O)NC(=O)C(C)(C)NC(=O)[C@@H](N)Cc1ccc(O)cc1)[C@@H](C)O)[C@@H](C)O)[C@@H](C)CC)[C@@H](C)CC)C(=O)N[C@@H](CCC(=O)O)C(=O)NCC(=O)NCC(=O)N1CCC[C@H]1C(=O)N[C@@H](CO)C(=O)N[C@@H](CO)C(=O)NCC(=O)N[C@@H](C)C(=O)N1CCC[C@H]1C(=O)N1CCC[C@H]1C(=O)N1CCC[C@H]1C(=O)N[C@@H](CO)C(N)=O` [Example 213] (H-Y[Aib]EGT[αMeF]TSDYSI[αMeL]LDEK([AEEA-AEEA-γGlu-C18 diacid])AQ[Aib]EFI[dE]YLIEGGPSSGAPPPS-NH2) the same measures were 544 nM, 0.365 nM, 2.75 nM, 0.071 nM and 0.0523 nM.
